Assay results as given in patent US7207289B2, “Method of feeding the cattle with feed additives that increases beef production and reduces liver abscess” (Intervet International B.V., priority 2004, dated 2007).

Experiments:
[1] = test system: cattle; settings: cited from earlier work
[2] = test system: steers and heifers; experiment: Zilpaterol efficacy studies V-0238-0019, V-0238-0020, V-0238-0021 (pooled analysis): liver abscesses and feed intake; type: in vivo, cattle
Source text: All of these cattle had been fed Tylan® up to the last 20 to 40 days on feed at which time Tylan® was removed and cattle were either fed a control diet without Tylan®, Rumensin® or zilpaterol or cattle were fed a treatment diet containing just zilpaterol. While the mechanism by which zilpaterol decreases liver abscess is not fully clear at this time, it seems that zilpaterol functions to decrease liver abscesses by decreasing feed intake. Because the liver abscesses discovered at slaughter are formed during the last ˜60 days or less on feed and this is the same time zilpaterol is fed, a decrease in feed intake would result in a decrease in acid production and possibly a decrease in rumen wall lesions and rumenitis.
Summary of Zilpaterol Efficacy Studies (Pooled Analysis), Study Numbers, V-0238-0019, V-0238-0020, and V-0238-0021 on Liver Abscesses and Feed Intake

[3] = test system: steers; experiment: Study V-0238-0017: effects of Rumensin plus Tylan and zilpaterol on liver abscess rates in feedlot steers; type: in vivo, cattle
Source text: In study number V-0238-0017 a total of 3,945 steers were used to test the effects of Rumensin® plus Tylan® and zilpaterol on feedlot performance, liver abscess rates, and carcass traits. The inventors discovered that Tylan® and Rumensin® could be removed from the diet for the last 30 days to feed zilpaterol without negatively affecting liver abscess rates. In fact it was discovered that zilpaterol decreased the incidence of liver abscesses.
Study Number V-0238-0017, Effects of Zilpaterol on Liver Abscesses

| Compound | feed intake and dressing percentage ([1]; Laudert and Vogel (1994)) | gain and feed to gain ratio ([1]; Laudert and Vogel (1994)) | average daily gain ([1]; Potter et al. (1985)) | feed intake ([1]; Potter et al. (1985)) | liver abscesses being reduced ([1]; cattle treated with Tylan, typical) [%] | Average Daily Dry Matter Intake, lbs. ([2]; pooled analysis of three studies, zilpaterol for the last 20 or 40 days) [lbs.] | % of Livers Condemned for Abscesses ([2]; pooled, 957 animals, Tylan removed for the last 20 to 40 days, diet containing just zilpaterol) [%] | liver abscesses (effect in words) ([2]; steers and heifers supplemented for 20 or 40 days) | Live Abscess, % ([3]; 166-day study, 3,945 steers, 10 pens per treatment, zilpaterol fed for the last 30 days on feed) [%] | incidence of liver abscesses (effect in words) ([3]; study V-0238-0017, steers) |
| --- | --- | --- | --- | --- | --- | --- | --- | --- | --- | --- |
| CC[C@H]1OC(=O)C[C@@H](O)[C@H](C)[C@@H](O[C@@H]2O[C@H](C)[C@@H](O[C@H]3C[C@@](C)(O)[C@@H](O)[C@H](C)O3)[C@H](N(C)C)[C@H]2O)[C@@H](CC=O)C[C@@H](C)C(=O)/C=C/C(C)=C/[C@@H]1CO[C@@H]1O[C@H](C)[C@@H](O)[C@@H](OC)[C@H]1OC [Tylan, Tylosin] | only minor effects | improved | improved | no effect | 63 to 71 |  |  |  |  |  |
| CC(C)NC1CCn2c(=O)[nH]c3cccc(c32)C1O (stereo not shown) [Zilpaterol] |  |  |  |  |  | 18.69 | 19.1 | significantly decreased | 13.29 | decreased |
